Experimental findings from patent publication US9127016B2, “Small molecule inhibitors of Dusp6 and uses therefor” (University of Pittsburgh—Of the Commonwealth System of …, priority 2009, dated 2015) are described below.

A value given as a limit tells only on which side of the number the result lay.

The target of test [1] is T1, Cdc25B (Homo sapiens, UniProt P30305).
T1 sequence (P30305 1-580): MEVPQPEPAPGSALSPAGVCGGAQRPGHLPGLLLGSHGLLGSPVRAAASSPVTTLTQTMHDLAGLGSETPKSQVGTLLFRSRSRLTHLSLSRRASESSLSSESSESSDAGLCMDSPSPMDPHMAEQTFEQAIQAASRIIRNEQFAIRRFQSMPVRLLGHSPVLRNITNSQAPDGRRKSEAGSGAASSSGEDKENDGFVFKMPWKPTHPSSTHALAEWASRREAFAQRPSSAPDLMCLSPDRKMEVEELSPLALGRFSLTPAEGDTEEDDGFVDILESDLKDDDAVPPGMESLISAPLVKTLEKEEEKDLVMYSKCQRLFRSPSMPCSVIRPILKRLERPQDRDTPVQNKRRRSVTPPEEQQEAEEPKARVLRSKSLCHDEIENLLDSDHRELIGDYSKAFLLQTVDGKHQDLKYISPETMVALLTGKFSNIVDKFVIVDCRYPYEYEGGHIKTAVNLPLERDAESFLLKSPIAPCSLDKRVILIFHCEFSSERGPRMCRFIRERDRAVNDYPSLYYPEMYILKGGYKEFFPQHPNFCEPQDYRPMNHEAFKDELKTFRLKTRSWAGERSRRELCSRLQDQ
The test is described as follows: OMFP phosphatase assay, Cdc25B. As to conditions: n=3, OMFP substrate, 15.2 nM-300 μM; read-out: mean in vitro values, Cdc25B. In kind it is biochemical. The protocol: Enzyme activities in the presence or absence of BCI were measured using the artificial substrate […] at concentrations equal to the Km of each enzyme (Cdc25B, PTP1B & Dusp3/VHR) and at optimal pH for individual enzyme activity in a 96-well microtiter plate assay based on previously described methods by Lazo et al. (J Med Chem 44, 4042-9 (2001) and Lazo, J. S. et al. Bioorg Med Chem 14, 5643-50 (2006)). Briefly, the standard assay conditions contained 0.02 mg/ml OMFP in assay buffer (30 mM Tris-HCl (pH8.0), 75 mM NaCl, 1 mM EDTA, 0.33% BSA and 1 mM DTT). Fluorescence emission was measured after a sixty-minute incubation period at ambient temperature using a multiwell plate reader (SpectraMax m5, […]; excitation 485 nm, emission 525 nm). Sodium orthovanadate (100 μM) was used as a positive control for full phosphatase inhibition. IC50 concentrations were determined from three experiments using 10 concentrations of BCI ranging from 300 μM to 15.2 nM and GraphPad Prism 5.0 software.

The subject of test [2] is cardiac progenitors / heart size. The test is described as follows: Cardiac progenitor and heart size analysis in treated embryos. In kind it is in vivo, zebrafish. As to the method:
In situ hybridization experiments were carried out as described previously (Kudoh, T. et al. Genome Res 11, 1979-87 (2001)). The probes eng3, krox20, sef, dusp6, gata4, nkx2.5, cmlc2, vmhc, scl, etsrp and hand2 were generated with a RNA labeling kit (Roche) (Tsang, M. et al. Development 131, 2769-79 (2004); Chen, J. N. et al. Development 122, 3809-16 (1996); Ekker, M., et al. Development 116, 1001-10 (1992); Liao, E. C. et al. Genes Dev 12, 621-6 (1998); Oxtoby, E. et al. Nucleic Acids Res 21, 1087-95 (1993); Pham, V. N. et al. Dev Biol 303, 772-83 (2007); Tsang, M., et al. Nat Cell Biol 4, 165-9 (2002); Yelon, D., et al. Dev Biol 214, 23-37 (1999); and Yelon, D. et al. Development 127, 2573-82 (2000)). The double fluorescent in situ hybridization protocol was described by Schoenbeck et al. (Dev Cell 13, 254-67 (2007)). Fluorescent in situ hybridizations were visualized by confocal microscopy. Single optical sections and z-series of flat-mounted stained embryos were collected with a confocal laser scan head (SP5, Leica Microsystems, Inc.) mounted on an inverted compound microscope (DM16000, Leica Microsystems, Inc.). Images were scanned and compiled with NIH ImageJ software (rsb.info.nih.gov/ij/).
The identification of a small molecule that blocks the biologically relevant activity of Dusp6 and Dusp1 allowed us to probe the requirement for these enzymes in later developmental processes. Given that BCI could potentially block related members of the Dusp family, we examined the expression of other dusps in zebrafish. Detailed expression analyses of several dusps have been described and include dusp4, dusp1, dusp7, dusp5, and dusp22a (Qian, F. et al. Dev Dyn 233, 1163-72 (2005); Sumanas, S., et al. Blood 106, 534-41 (2005); Brown, J. L. et al. Proc Natl Acad Sci USA 105, 12337-42 (2008); Kudoh, T. et al. Genome Res 11, 1979-87 (2001); and Thisse, B. et al. Fast Release Clones: A High Throughput Expression Analysis. ZFIN Direct Data Submission (zfin.org) (2004)). Of these only Dusp6 functions as a feedback regulator of FGF/MAPK/ERK signaling and is expressed within the anterior lateral plate mesoderm, supporting the idea that this phosphatase plays a role in heart development. In early embryogenesis, Dusp6 is an important regulator of FGF signaling; knock-down with antisense morpholinos results in embryo polarity defects, which precludes the study of Dusp6′s role in later development (Tsang, M. et al. Development 131, 2769-79 (2004)). In contrast, small molecules permit the analysis at later stages of development due to rapid and transient perturbation of their biological targets. Using BCI as a chemical probe, we asked how inhibiting Dusp6 activity would alter patterning and formation of the heart. The zebrafish heart develops from a small group of cardiac progenitor cells that can be identified by 5 hpf within the mesodermal layer of the blastula stage embryo. During gastrulation, cardiac progenitor cells undergo cellular migration to form two bilateral populations known as the anterior lateral plate mesoderm (ALPM) located just behind the MHB, and begin to express the transcription factors nkx2.5 and gata4. Studies have described a role for Fgf8 in zebrafish heart development. In embryos harboring an fgf8 mutation, both atria and ventricular cells are reduced (Marques, S. R., et al. Dev Biol 321, 397-406 (2008) and Reifers, F., et al. Development 127, 225-35 (2000)). In agreement with the notion that FGF signaling plays a role in stipulating heart size, ectopic expression of a constitutively activated FGF receptor (Fgfrl) during somitogenesis stages expanded cardiac tissue (Marques, S. R., et al. Dev Biol 321, 397-406 (2008)). Therefore we used BCI to test if Dusp6 limits FGF signaling and restricts cardiac progenitors and heart organ size. In BCI-treated embryos a caudal expansion of gata4 in the ALPM was observed (compare FIG. 14a & a′ to 14b & b′; 81%, n=16). […]

Turning to `O=C1/C(=C/c2ccccc2)C(NC2CCCCC2)c2ccccc21` (stereo not shown) [Compound 3, (E)-2-benzylidene-3-(cyclohexylamino)-2,3-dihydro-1H-inden-1-one], the IC50 in test [1] was > 300 µM. Also, the “embryos with expansion of cardiac hand2 expression” value in test [2] (10-somite stage, n=19) stood at 32%. The “embryos with increase in cmlc2 positive cells” value in test [2] (18-somite stage, n=16) was 81%. Also, the “embryos with expanded nkx2.5 cardiac progenitor pools” value in test [2] (n=11) is on record as 91%. Besides, the “embryos with caudal expansion of gata4 in the ALPM” value in test [2] (n=16, 10-somite stage) was 81%. Besides, in test [2] (treated at 40% epiboly, washout next day, 56 hpf), the “cardiac tissue in larvae” value is “marked expansion in cardiac tissue”. Besides, the “embryos with marked reduction in scl expression” value in test [2] (treated from the 1-somite stage, n=15) is given as 93%.
